Experimental data published in patent publication US6331553A, “Aromatic amine derivatives having NOS inhibiting action” (Chugai Seiyaku Kabushiki Kaisha, priority 1996, dated 2001).
pIC50: −log10 of the molar value. Where two headings read alike, the source gives them in different places.

Tests used:
iNOS = target: T1, iNOS (Rattus norvegicus, UniProt Q06518); experiment: Inhibitory effect on crude iNOS (conversion of L-[3H]arginine to L-[3H]citrulline); assay type: biochemical, Rats (lungs, LPS treated); conditions: for pIC50: mean values, duplicate, crude enzyme from lungs of LPS-treated rats, 37° C. 10 min, read-out: Inhibitory action IC50 iNOS; for Selectivity eNOS/iNOS: ratio of IC50 values eNOS/iNOS
T1 construct: a soluble cytosolic fraction of the finally obtained supernatant was used as the crude enzyme of iNOS; from tissue; host or cells: lungs of LPS-treated rats, soluble cytosolic fraction (100,000×g supernatant)
Experimental: (§1) Compounds of the invention were evaluated for their inhibitory effect on the presently known three NOS isoforms.
The crude enzyme of iNOS was prepared by the following procedure. Rats were administered LPS (10 mg/kg) intraperitoneally and, 6 h later, perfused in a transcardiac manner with physiological saline containing 10 U/ml of heparin; thereafter, lungs were taken out. Subsequently, 5 volumes of 50 mM Tris-HCl containing 1 mM DTT (pH 7.4) was added and the mixture was homogenized for 3 min, followed by centrifugation of the homogenate at 1,000×g for 10 min. The resulting supernatant was centrifuged at 100,000×g for 60 min and a soluble cytosolic fraction of the finally obtained supernatant was used as the crude enzyme of iNOS.
(§2) The reaction was started by addition of L-[^3 H] arginine. After incubation at 37° C. for 10 min, the reaction was terminated by addition of 2 ml of 50 mM Tris-HCl (pH 5.5) containing 1 mM EDTA and placing the mixture on ice. The reaction solution was passed through a cation-exchange resin column (Dowex AG50WX-8, Na^+ form, 3.2 ml) to separate the reaction product L-[^3 H] citrulline from the unreacted residual substrate L-[^3 H] arginine. The eluate was combined with another eluate resulting from the passage of a given amount of distilled water through the column and put into a minivial for recovery of L-[^3 H] citrulline. Thereafter, a scintillation fluid was added and the contained radioactivity was measured with a liquid scintillation counter to determine the amount of L-[^3 H] citrulline.
(§3) The activity of nNOS or eNOS was determined by subtracting the activity detected in the absence of CaCl2 and calmodulin from the activity detected in the presence of CaCl2 and calmodulin. The activity of iNOS was detected in the absence of CaCl2 and calmodulin. The protein concentration of each crude enzyme sample was determined with a micro-assay kit of Bio Rad Co. Each Experiment was conducted in a duplicate.
The table also lists the ratios of IC50 values to each other as an index of selectivity.

nNOS = target: T2, nNOS (Rattus norvegicus, UniProt P29476); experiment: biochemical; design: species or system male Sprague Dawley (SD) rats (cerebral cortex); conditions: for Selectivity eNOS/nNOS: ratio of IC50 values eNOS/nNOS; for Selectivity iNOS/nNOS: ratio of IC50 values iNOS/nNOS
T2 construct: a soluble cytosolic fraction of the finally obtained supernatant was used as the crude enzyme of nNOS; from tissue; host or cells: rat cerebral cortex, soluble cytosolic fraction (100,000×g supernatant)
Experimental: The crude enzyme of nNOS was prepared by the following procedure. Normal untreated male Sprague Dawley (SD) rats (body weight, 300-400 g) were decapitated; the whole brain was immediately taken out from each animal and the cerebral cortex was separated on ice. Then, 5 volumes of 50 mM Tris-HCl containing 1 mM DTT (pH 7.4) was added and the mixture was homogenized for 3 min and centrifuged at 1,000×g for 10 min. The resulting supernatant was further centrifuged at 100,000×g for 60 min and a soluble cytosolic fraction of the finally obtained supernatant was used as the crude enzyme of nNOS.

eNOS = target: T3, eNOS (Bos taurus, UniProt P29473); experiment: Inhibitory effect on crude eNOS (conversion of L-[3H]arginine to L-[3H]citrulline); assay type: biochemical, Cow (pulmonary arterial endothelium cells, CPAE)
T3 construct: the resulting supernatant was used as the crude enzyme of eNOS; endogenous in cells; host or cells: CPAE (cow pulmonary arterial endothelium cells), 1% Triton X-100 extract
Experimental: as §1
Crude enzymes of the respective NOS isoforms were prepared by the following procedures (Nagafuji et al., Neuroreport 6, 1541-1545, 1995).
The crude enzyme of eNOS was prepared by the following procedure. Cow pulmonary arterial endothelium cells (CPAE) were cultured in a MEM medium containing 20% FBS. Several days later, the cells were detached from the flask using a 0.25% trypsin solution containing 1 mM EDTA and, after addition of a suitable amount of FBS, centrifuged at 1,000 rpm for 10 min. A suitable amount of Ca- and Mg-free phosphate buffer (pH 7.4) was added to the precipitating cells and they were centrifuged at 1,000 rpm for 10 min. The same step was repeated to wash the cells which, upon addition of 50 mM Tris-HCl (pH 7.4) containing 1% Triton X-100 and 1 mM DTT, were left to stand in ice for 1 h. Subsequently, the mixture was homogenized for 3 min and kept in ice for 30 min with occasional stirring. Finally, the mixture was centrifuged at 100,000×g for 60 min and the resulting supernatant was used as the crude enzyme of eNOS.
The method of measuring NOS activity was basically the same as already reported by the present inventors and consisted of determining quantitatively the conversion of a substrate L-[^3 H]arginine to a reaction product L-[^3 H] citrulline (Nagafuji et al., in Brain Edema IX (Ito et al, eds.) 60, pp. 285-288, 1994; Nagafuji et al., Neuroreport 6, 1541-1545, 1995)
The reaction solution consisted of 100 nM L-[^3 H] arginine, a prepared crude NOS enzyme sample (10-30 μg/ml protein), 1.25 mM CaCl2, 1 mM EDTA, 10 μg/ml calmodulin, 1 mM NADPH, 100 μM tetrahydrobiopterine, 10 μM FAD, 10 μM FMN and 50 mM Tris-HCl (pH 7.4), to which one of the compounds of the invention or one of the control compounds was added.
as §2, §3
Table 81 lists the mean values of IC50 (the concentration necessary to inhibit 50% activity) of all test compounds against each NOS isoform. The table also lists the ratios of IC50 values to each other as an index of selectivity.

[1] = mean values, duplicate, crude enzyme from rat cerebral cortex, 37° C. 10 min, read-out: Inhibitory action IC50 nNOS
[2] = mean values, duplicate, crude enzyme from CPAE cells, 37° C. 10 min, read-out: Inhibitory action IC50 eNOS

T3 sequence (P29473 2-1205): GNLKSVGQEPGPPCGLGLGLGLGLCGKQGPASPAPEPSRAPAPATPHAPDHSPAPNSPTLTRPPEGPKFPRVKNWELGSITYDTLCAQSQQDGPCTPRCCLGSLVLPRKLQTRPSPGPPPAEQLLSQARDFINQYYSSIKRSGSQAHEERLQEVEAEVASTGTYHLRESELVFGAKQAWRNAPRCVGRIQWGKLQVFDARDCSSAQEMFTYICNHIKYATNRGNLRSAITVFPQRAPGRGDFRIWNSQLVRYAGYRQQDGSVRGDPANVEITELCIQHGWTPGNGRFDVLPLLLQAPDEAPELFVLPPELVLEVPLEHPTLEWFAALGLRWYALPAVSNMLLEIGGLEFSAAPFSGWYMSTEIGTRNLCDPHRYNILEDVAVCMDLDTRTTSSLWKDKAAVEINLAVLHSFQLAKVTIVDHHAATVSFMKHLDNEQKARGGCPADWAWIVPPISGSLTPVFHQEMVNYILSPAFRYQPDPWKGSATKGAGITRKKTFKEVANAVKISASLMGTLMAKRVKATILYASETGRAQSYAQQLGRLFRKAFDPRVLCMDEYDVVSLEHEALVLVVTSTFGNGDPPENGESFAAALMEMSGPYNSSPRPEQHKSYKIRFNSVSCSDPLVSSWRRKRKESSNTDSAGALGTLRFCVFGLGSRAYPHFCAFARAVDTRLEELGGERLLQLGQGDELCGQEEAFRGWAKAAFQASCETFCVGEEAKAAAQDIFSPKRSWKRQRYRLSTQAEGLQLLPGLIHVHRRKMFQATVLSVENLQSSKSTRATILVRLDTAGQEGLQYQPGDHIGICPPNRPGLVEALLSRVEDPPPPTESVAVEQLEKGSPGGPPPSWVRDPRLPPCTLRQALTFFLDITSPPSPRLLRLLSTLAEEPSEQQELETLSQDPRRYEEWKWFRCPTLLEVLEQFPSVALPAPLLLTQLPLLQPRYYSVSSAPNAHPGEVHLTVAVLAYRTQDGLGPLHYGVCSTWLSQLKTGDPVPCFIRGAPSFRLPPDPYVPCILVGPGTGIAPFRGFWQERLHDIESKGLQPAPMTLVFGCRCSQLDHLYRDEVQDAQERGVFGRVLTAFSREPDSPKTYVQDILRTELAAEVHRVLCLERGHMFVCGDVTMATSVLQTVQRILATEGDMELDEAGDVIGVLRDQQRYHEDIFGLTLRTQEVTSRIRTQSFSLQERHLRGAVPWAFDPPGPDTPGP

Row | SMILES | pIC50 (iNOS) | Selectivity eNOS/iNOS (iNOS) | pIC50 (nNOS; [1]) | Selectivity eNOS/nNOS (nNOS) | Selectivity iNOS/nNOS (nNOS) | pIC50 (eNOS; [2]) | pIC50 (nNOS) | pIC50 (eNOS)
1 | COc1ccc([N+](=O)[O-])c(Nc2cccc(CN)c2)n1 [Example 18] | 6.04 | 0.14 | 7.65 | 14 | 41 | 6.49 | – | –
2 | Cc1ccc([N+](=O)[O-])c(Nc2cccc(CN)c2)n1.Cl [Example 52, 2-(3-aminomethylphenylamino)-6-methyl-3-nitropyridine hydrochloride] | – | – | 7.10 | 19 | – | 5.83 | – | –
3 | CCc1ccc([N+](=O)[O-])c(Nc2cccc(CN)c2)n1.Cl [Example 53, 2-(3-aminomethylphenylamino)-6-ethyl-3-nitropyridine hydrochloride] | – | – | 7.06 | 77 | – | 5.18 | – | –
4 | CCOc1ccc([N+](=O)[O-])c(Nc2cccc(CN)c2)n1 [Example 57] | – | – | 7.15 | 13 | – | 6.02 | – | –
5 | CSc1ccc([N+](=O)[O-])c(Nc2cccc(CN)c2)n1 [Example 61] | – | – | 6.90 | 13 | – | 5.79 | – | –
6 | Cc1ccc([N+](=O)[O-])c(Nc2cccc(CN)c2)c1 [Example 151] | – | – | 6.90 | 5 | – | 6.17 | – | –
7 | COc1ccc([N+](=O)[O-])c(Nc2cccc(CN)c2)c1 [Example 153] | – | – | 7.53 | 20 | – | 6.23 | – | –
8 | COc1ccc([N+](=O)[O-])c(Nc2cccc(CN)c2C)n1 [Example 458] | – | – | 7.68 | 19 | – | 6.39 | – | –
9 | COc1ccc([N+](=O)[O-])c(Nc2ccc(CCN)cc2)n1 [Example 460] | – | – | 6.95 | 11 | – | 5.91 | – | –
10 | COc1ccc([N+](=O)[O-])c(Nc2cccc(C(C)(C)N)c2)n1 [Example 462] | – | – | 7.79 | 16 | – | 6.59 | – | –
11 | COc1ccc([N+](=O)[O-])c(Nc2cccc(CN)c2OC)n1 [Example 465] | – | – | 7.51 | 32 | – | 6.00 | – | –
12 | COc1ccc([N+](=O)[O-])c(Nc2ccc(Cl)c(CN)c2)n1 [Example 466] | – | – | 7.45 | 12 | – | 6.38 | – | –
13 | COc1ccc([N+](=O)[O-])c(Nc2ccc(F)c(CN)c2)n1 [Example 467] | – | – | 7.71 | 14 | – | 6.56 | – | –
14 | CCOc1c(CN)cccc1Nc1nc(OC)ccc1[N+](=O)[O-] [Example 468] | – | – | 7.25 | 44 | – | 5.61 | – | –
15 | COc1ccc([N+](=O)[O-])c(Nc2cccc(CN)c2Cl)n1 [Example 469] | – | – | 7.40 | 25 | – | 6.00 | – | –
16 | Cc1ccnc(Nc2cccc(CN)c2)c1 [Example 478] | – | – | 7.21 | 7 | – | 6.35 | – | –

Row | SMILES | pIC50 (iNOS) | Selectivity eNOS/iNOS (iNOS) | pIC50 (nNOS; [1]) | Selectivity eNOS/nNOS (nNOS) | Selectivity iNOS/nNOS (nNOS) | pIC50 (eNOS; [2]) | pIC50 (nNOS) | pIC50 (eNOS)
17 | Cc1ccnc(Nc2cccc(C(C)(C)N)c2)c1 [Example 479] | – | – | 7.17 | 12 | – | 6.10 | – | –
18 | Cc1ccnc(Nc2cccc(CN)c2C)c1 [Example 481] | – | – | 7.11 | 25 | – | 5.70 | – | –
19 | CCc1ccc(Nc2cc(C)ccn2)cc1CN [Example 482] | – | – | 7.30 | 27 | – | 5.87 | – | –
20 | CCOc1ccc(Nc2cc(C)ccn2)cc1CN [Example 483] | – | – | 7.18 | 11 | – | 6.15 | – | –
21 | Cc1ccnc(Nc2ccccc2CCN)c1 [Example 484] | – | – | – | 18 | – | – | 7.16 | 5.90
22 | Cc1ccnc(Nc2cccc(CN)c2Cl)c1 [Example 485] | 5.75 | 1.6 | 7.26 | 53 | 32 | 5.54 | – | –
23 | Cc1ccnc(Nc2cccc(C3(N)CCC3)c2)c1 [Example 488] | – | – | 7.40 | 8 | – | 6.53 | – | –
24 | Cc1ccnc(Nc2ccc(CCN)cc2)c1 [Example 489] | – | – | – | – | – | – | 7.66 | –
25 | CCOc1c(CN)cccc1Nc1cc(C)ccn1 [Example 490] | – | – | 7.74 | 19 | – | 6.46 | – | –
26 | Cc1ccnc(Nc2ccc(Cl)c(CN)c2)c1 [Example 491] | – | – | 7.34 | 39 | – | 5.75 | – | –
27 | CCCOc1c(CN)cccc1Nc1cc(C)ccn1 [Example 506] | – | – | 7.54 | 45 | – | 5.89 | – | –
28 | CCOc1c(Nc2cc(C)ccn2)ccc(Cl)c1CN [Example 521] | – | – | 7.71 | 25 | – | 6.31 | – | –
29 | CCOc1c(Nc2cc(C)ccn2)ccc(C)c1CN [Example 522] | – | – | 7.71 | 20 | – | 6.40 | – | –
30 | COc1c(CN)cccc1Nc1cc(C)ccn1 [Example 541] | – | – | 7.59 | 28 | – | 6.15 | – | –
31 | Cc1ccnc(Nc2cccc(CN)c2OC(C)C)c1 [Example 543] | – | – | 7.90 | 20 | – | 6.60 | – | –
